This is an account of results in patent US8680159B2, “Bradykinin 1 receptor modulating compounds” (Gruenenthal GmbH, priority 2010, dated 2014).

Usually inhibition stands for the relative decrease from the control value, in per cent.

Like-named read-outs stand apart in the source and are kept apart here.

The target in assay [1] is T1, human B1R receptor (CHO K1 cells stably transfected with the human B1R gene) (Homo sapiens, UniProt P46663).
T1 construct: expressed in transfected cells; host or cells: CHO K1 cells (Chinese hamster ovary), stably transfected
T1 sequence (P46663 1-353): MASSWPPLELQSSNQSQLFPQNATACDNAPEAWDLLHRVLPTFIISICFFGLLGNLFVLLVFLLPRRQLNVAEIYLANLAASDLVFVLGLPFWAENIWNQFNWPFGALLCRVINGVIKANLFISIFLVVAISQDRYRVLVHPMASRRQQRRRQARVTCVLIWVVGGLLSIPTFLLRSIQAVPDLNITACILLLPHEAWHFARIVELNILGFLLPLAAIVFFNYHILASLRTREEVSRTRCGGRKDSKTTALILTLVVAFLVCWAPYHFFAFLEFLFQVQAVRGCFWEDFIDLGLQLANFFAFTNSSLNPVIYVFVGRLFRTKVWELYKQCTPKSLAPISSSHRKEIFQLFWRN
The assay can be described thus: Functional study on the bradykinin receptor 1 (B1R), Ca2+ fluorescence (Fluo-4) FLIPR/Novostar assay, hB1R cells. The assay is classed as cell-based. The method, boiled down: (§1)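 Test compounds (10 μM) were added first and the Ca2+ rise was scored as % activation against Lys-Des-Arg9-bradykinin (≥50 nM, human) or Des-Arg9-bradykinin (≥1 μM, rat). After 6-20 min, the matching agonist was given at its EC80, and % inhibition relative to maximal achievable inhibition was calculated.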

The target in assay [2] is T2, B1R receptor of the rat (CHO K1 cells stably transfected with the B1R gene of the rat) (Rattus norvegicus, UniProt P97583).
T2 construct: expressed in transfected cells; host or cells: CHO K1 cells (Chinese hamster ovary), stably transfected
T2 sequence (P97583 1-337): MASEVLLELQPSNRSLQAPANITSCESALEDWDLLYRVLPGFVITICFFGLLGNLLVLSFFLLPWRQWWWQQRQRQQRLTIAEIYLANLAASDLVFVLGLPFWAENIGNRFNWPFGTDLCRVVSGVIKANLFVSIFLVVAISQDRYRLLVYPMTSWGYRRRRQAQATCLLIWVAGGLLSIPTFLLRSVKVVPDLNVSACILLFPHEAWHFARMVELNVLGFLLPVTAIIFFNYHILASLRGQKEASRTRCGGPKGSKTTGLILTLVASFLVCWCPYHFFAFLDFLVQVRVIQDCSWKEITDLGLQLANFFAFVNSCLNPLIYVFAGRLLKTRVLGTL
Briefly: Functional study on the bradykinin receptor 1 (B1R), Ca2+ fluorescence (Fluo-4) FLIPR/Novostar assay, rB1R cells. As to conditions: for inhibition at 10 µM: CHO-K1, 10 μM. Type of assay: cell-based. In a few lines:
as §1

Setting [3] is: CHO-K1, read-out: % Inhibition (h-B1R) at 10 μM.
[4] abbreviates: read-out: % Inhibition (r-B1R) at 10 μM.
Where [5] appears, read: CHO-K1, read-out: % inhibition (human B1R) at 10 μM.
[6] abbreviates: read-out: % inhibition (rat B1R) at 10 μM.

Regarding `CN(C(=O)c1ccc2c(c1)C(NC(=O)C1CCCCC1)CC2(C)C)C1CCN(c2ccncc2)CC1` (stereo not shown) [CC_H-14, 3-(Cyclohexanecarbonylamino)-N,1,1-trimethyl-N-(1-pyridin-4-yl-piperidin-4-yl)-2,3-dihydro-indene-5-carboxylic acid amide], the inhibition at 10 µM is 99% in assay [1] (setting [3]) and 104% in assay [2] (setting [4]).
On to `CN1CCN([C@@H]2CCC[C@H](N(C)C(=O)c3ccc4c(c3)CC[C@H]4N3Cc4cccc(Cl)c4C3=O)C2)CC1` [Example H-111, (1R)-1-(4-Chloro-3-oxo-1,2-dihydro-isoindol-2-yl)-N-methyl-N-[(1S,3R)-3-(4-methyl-piperazin-1-yl)-cyclohexyl]-2,3-dihydro-1H-indene-5-carboxylic acid amide], for which the inhibition at 10 µM in assay [1] (setting [5]) turned out to be 65%; in assay [2] (setting [6]), 10%.
`CN(C(=O)c1ccc2c(c1)[C@H](N(C)C(=O)c1ccccc1Cl)CC2)C1CCN(c2ccncc2)CC1` [Example H-153, (3R)-3-[(2-Chloro-benzoyl)-methyl-amino]-N-methyl-N-(1-pyridin-4-yl-piperidin-4-yl)-2,3-dihydro-1H-indene-5-carboxylic acid amide]: the inhibition at 10 µM in assay [1] (setting [5]) came to 100%; in assay [2] (setting [6]) it was 101%.
Take `CN1CCN([C@@H]2CCC[C@H](N(C)C(=O)c3ccc4c(c3)[C@H](NS(=O)(=O)c3ccccc3Cl)CC4)C2)CC1` [Example H-104, (3R)-3-[[(2-Chlorophenyl)sulfonyl]amino]-N-methyl-N-[(1S,3R)-3-(4-methyl-piperazin-1-yl)-cyclohexyl]-2,3-dihydro-1H-indene-5-carboxylic acid amide]: the values for the inhibition at 10 µM in assay [1] (setting [5]) and in assay [2] (setting [6]) were 75% and 37%, respectively.
Regarding `Cc1cc(N2CCC(N(C)C(=O)c3ccc4c(c3)[C@H](NC(=O)c3ccccc3F)CC4)CC2)nc(C)n1` [Example H-128, (3R)-N-[1-(2,6-Dimethyl-pyrimidin-4-yl)-piperidin-4-yl]-3-[(2-fluoro-benzoyl)amino]-N-methyl-2,3-dihydro-1H-indene-5-carboxylic acid amide], the inhibition at 10 µM turned out to be 99% in assay [1] (setting [5]) and 100% in assay [2] (setting [6]).
For `CN(C(=O)c1ccc2c(c1)[C@H](NC(=O)C1CCOc3ccccc31)CC2)C1CCN(c2ccncc2)CC1` (stereo partly drawn) [Example H-84, N-[(1R)-6-[Methyl-(1-pyridin-4-yl-piperidin-4-yl)-carbamoyl]-2,3-dihydro-1H-inden-1-yl]-3,4-dihydro-2H-chromene-4-carboxylic acid amide], the results for the inhibition at 10 µM in assay [1] (setting [5]) and in assay [2] (setting [6]) were 100% and 103%, respectively.
For `CN(C(=O)c1ccc2c(c1)CCC2NS(=O)(=O)Cc1ccccc1C(F)(F)F)C1CCN(c2ccncc2)CC1` (stereo not shown) [CC_H-61, N-Methyl-N-(1-pyridin-4-yl-piperidin-4-yl)-1-[[[2-(trifluoromethyl)-phenyl]-methylsulfonyl]amino]-2,3-dihydro-1H-indene-5-carboxylic acid amide], the results for the inhibition at 10 µM in assay [1] (setting [3]) and in assay [2] (setting [4]) were 100% and 80%, respectively.
As for `Cc1cncc(N2CCC(N(C)C(=O)c3ccc4c(c3)[C@H](NC(=O)c3ccccc3Cl)CC4)CC2)n1` [Example H-181, (3R)-3-[(2-Chloro-benzoyl)amino]-N-methyl-N-[1-(6-methyl-pyrazin-2-yl)-piperidin-4-yl]-2,3-dihydro-1H-indene-5-carboxylic acid amide], the inhibition at 10 µM is 77% in assay [1] (setting [5]) and 100% in assay [2] (setting [6]).
`CC(C)N(C(=O)c1ccccc1Cl)[C@@H]1CCc2cc(C(=O)N(C)C3CCN(c4ccncc4)CC3)c(F)cc21` [Example H-158, (1R)-1-[(2-Chloro-benzoyl)isopropyl-amino]-6-fluoro-N-methyl-N-(1-pyridin-4-yl-piperidin-4-yl)-2,3-dihydro-1H-indene-5-carboxylic acid amide]: the inhibition at 10 µM in assay [1] (setting [5]) was found to be 23%; in assay [2] (setting [6]), 61%.
As to `CN(C(=O)c1ccc2c(c1)[C@H](NS(=O)(=O)c1ccc(F)cc1)CC2)C1CCN(c2ccncc2)CC1` [Example H-72, (3R)-3-[[(4-Fluorophenyl)sulfonyl]amino]-N-methyl-N-(1-pyridin-4-yl-piperidin-4-yl)-2,3-dihydro-1H-indene-5-carboxylic acid amide], the inhibition at 10 µM in assay [1] (setting [5]) was 99%; in assay [2] (setting [6]) it was 104%.
In the case of `O=C(N[C@@H]1CCc2ccc(C(=O)N(C3CC3)C3CCN(c4ccncc4)CC3)cc21)c1ccccc1Cl` [Example H-38, (3R)-3-[(2-Chloro-benzoyl)amino]-N-cyclopropyl-N-(1-pyridin-4-yl-piperidin-4-yl)-2,3-dihydro-1H-indene-5-carboxylic acid amide], the inhibition at 10 µM in assay [1] (setting [5]) was found to be 100%; in assay [2] (setting [6]), 103%.
Regarding `CN(C(=O)c1ccc2c(c1)CCC2NC(=O)c1sccc1Cl)C1CCN(c2ccncc2)CC1` (stereo not shown) [CC_H-13, 3-Chloro-N-[5-[methyl-(1-pyridin-4-yl-piperidin-4-yl)-carbamoyl]-2,3-dihydro-1H-inden-1-yl]-thiophene-2-carboxylic acid amide], the inhibition at 10 µM in assay [1] (setting [3]) was 100%; in assay [2] (setting [4]), 78%.
In the same order, the values of `CN(C(=O)c1ccc2c(c1)C(NS(=O)(=O)Cc1ccccc1C(F)(F)F)CC2)C1CCN(c2ccc3cnccc3c2)CC1` (stereo not shown) [CC_H-55, N-(1-Isoquinolin-6-yl-piperidin-4-yl)-N-methyl-3-[[[2-(trifluoromethyl)-phenyl]-methylsulfonyl]amino]-2,3-dihydro-1H-indene-5-carboxylic acid amide] are 99% and 96%.
In the same order, the values of `CN(C(=O)c1ccc2c(c1)C(NC(=O)c1cccc(Cl)c1Cl)CCO2)C1CCN(c2ccncc2)CC1` (stereo not shown) [CC_H-35, 4-[(2,3-Dichloro-benzoyl)amino]-N-methyl-N-[1-pyridin-4-yl-piperidin-4-yl]-3,4-dihydro-2H-chromene-6-carboxylic acid amide] are 97% and 104%.
Taken in the same sequence, the figures for `CN(C(=O)c1ccc2c(c1)C(NS(=O)(=O)c1c(Cl)cccc1C(F)(F)F)CC2)C1CCN(c2ccncc2)CC1` (stereo not shown) [CC_H-54, 3-[[[2-Chloro-6-(trifluoromethyl)-phenyl]sulfonyl]amino]-N-methyl-N-(1-pyridin-4-yl-piperidin-4-yl)-2,3-dihydro-1H-indene-5-carboxylic acid amide] were 100% and 104%.
Take `Cc1cc(N2CCC(N(C)C(=O)c3ccc4c(c3)[C@H](N(C(=O)c3ccccc3Cl)C(C)C)CC4)CC2)nc(C(C)C)n1` [Example H-166, (3R)-3-[(2-Chloro-benzoyl)-isopropyl-amino]-N-[1-(2-isopropyl-6-methyl-pyrimidin-4-yl)-piperidin-4-yl]-N-methyl-2,3-dihydro-1H-indene-5-carboxylic acid amide]: the inhibition at 10 µM was 100% in assay [1] (setting [5]) and 55% in assay [2] (setting [6]).
As for `CN(C(=O)c1ccc2c(c1)[C@H](NC(=O)C1CCOCC1)CC2)C1CCN(c2ccncc2)CC1` [Example H-76, N-[(1R)-6-[Methyl-(1-pyridin-4-yl-piperidin-4-yl)-carbamoyl]-2,3-dihydro-1H-yl)-1-2,3-tetrahydro-pyran-4-carboxylic acid amide], the inhibition at 10 µM in assay [1] (setting [5]) stood at 95%; in assay [2] (setting [6]) it was 107%.
Consider `Cc1cc(N2CCC(N(C)C(=O)c3cc(F)c4c(c3)[C@H](NC(=O)c3ccccc3Cl)CCO4)CC2)nc(C)n1` [Example H-81, (4R)-4-[(2-Chloro-benzoyl)amino]-N-[1-(2,6-dimethyl-pyrimidin-4-yl)-piperidin-4-yl]-8-fluoro-N-methyl-3,4-dihydro-2H-chromene-6-carboxylic acid amide], for which the inhibition at 10 µM in assay [1] (setting [5]) was found to be 95%; in assay [2] (setting [6]), 109%.
In the case of `CN(C(=O)c1ccc2c(c1)C(NC(=O)c1cc(F)ccc1Cl)CCC2)C1CCN(c2ccncc2)CC1` (stereo not shown) [CC_H-04, 8-[(2-Chloro-5-fluoro-benzoyl)amino]-N-methyl-N-(1-pyridin-4-yl-piperidin-4-yl)-5,6,7,8-tetrahydro-naphthalene-2-carboxylic acid amide], in assay [1] (setting [3]), the inhibition at 10 µM turned out to be 99%. For the same molecule, the “% Inhibition (r-B1R) at 10 μM” value in assay [2] (10 μM) is recorded as 104%.
Consider `CC(C)N(C(=O)c1ccccc1Cl)[C@@H]1CCc2cc(F)c(C(=O)N(C)C3CCN(c4ccncc4)CC3)cc21` [Example H-155, (3R)-3-[(2-Chloro-benzoyl)-isopropyl-amino]-6-fluoro-N-methyl-N-(1-pyridin-4-yl-piperidin-4-yl)-2,3-dihydro-1H-indene-5-carboxylic acid amide], for which the values for the inhibition at 10 µM in assay [1] (setting [5]) and in assay [2] (setting [6]) were 62% and 104%, respectively.
